Data: patent EP2518139A1, “Use of indirubin derivatives for producing pluripotent stem cells” (Universitätsklinikum Jena, priority 2011, dated 2012)

Experiments:
[1] = test system: mono-, di- and poly-ubiquitins; assay: Immunoblot of ubiquitins in HeLa cells; type: cell-based, human; conditions: BMP-stimulated HeLa, 24h; MG132 5µM, E738 (1µM)
Procedure: Western blot:: Cell extracts were homogenized in Urea-Lysis buffer (1mM EDTA,0.5% Triton X-100), 5mM NaF, 6M Urea, 1mM Na3VO4, 10µg/mL Pepstatin, 100µM PMSF and 3µg/mL Aprotinin in PBS). Enhanced chemiluminescence (ECL) Western blot analysis was performed. 20-40µg of total protein was resolved on 10% SDS-PAGE gels and immunoblotted with specific antibodies. Primary antibodies were incubated at a 1:1,000 dilution in TBS (pH 7.5) with 0.1% Tween-20 and 5% BSA/nonfat milk with gentle agitation overnight at 4°C. The proper secondary antibodies were incubated in TBS (pH 7.5) with 5% BSA/nonfat milk and 0.1 % Tween-20 at a 1:5,000 dilution for 1 h at room temperature.
Ubiquitin-proteasome degradation system is the major route to protein degradation. To identify if indirubin-induced degradation is conducted by proteasome, we utilized MG132, a general proteasome inhibitor, to characterize the role of proteasome in degradation. We found 5µM MG132 was sufficient to rescue the E738 mediated Smad1/5/8 […] 24h after treatment (Fig. 5E and 5F). […] Thus we interpreted that E738 might be able to promote degradation of polymerased ubiquintins through activating the formation of complexes with certain substrates, speculatively like Smad1/2/3/5/8, leading to accelerate the recycling of mono-ubiquitin, while MG132 blocked the degradation of these complexes and arrest such recycling. […]

[2] = biological target: T1, b-Raf (Homo sapiens, UniProt P15056); assay: Kinase profiling assay (ProQinase); type: biochemical; conditions: 1µM E738, 1µM ATP, recombinant protein kinase
T1 construct: purchased ProQinase
T1 sequence (P15056 whole entry): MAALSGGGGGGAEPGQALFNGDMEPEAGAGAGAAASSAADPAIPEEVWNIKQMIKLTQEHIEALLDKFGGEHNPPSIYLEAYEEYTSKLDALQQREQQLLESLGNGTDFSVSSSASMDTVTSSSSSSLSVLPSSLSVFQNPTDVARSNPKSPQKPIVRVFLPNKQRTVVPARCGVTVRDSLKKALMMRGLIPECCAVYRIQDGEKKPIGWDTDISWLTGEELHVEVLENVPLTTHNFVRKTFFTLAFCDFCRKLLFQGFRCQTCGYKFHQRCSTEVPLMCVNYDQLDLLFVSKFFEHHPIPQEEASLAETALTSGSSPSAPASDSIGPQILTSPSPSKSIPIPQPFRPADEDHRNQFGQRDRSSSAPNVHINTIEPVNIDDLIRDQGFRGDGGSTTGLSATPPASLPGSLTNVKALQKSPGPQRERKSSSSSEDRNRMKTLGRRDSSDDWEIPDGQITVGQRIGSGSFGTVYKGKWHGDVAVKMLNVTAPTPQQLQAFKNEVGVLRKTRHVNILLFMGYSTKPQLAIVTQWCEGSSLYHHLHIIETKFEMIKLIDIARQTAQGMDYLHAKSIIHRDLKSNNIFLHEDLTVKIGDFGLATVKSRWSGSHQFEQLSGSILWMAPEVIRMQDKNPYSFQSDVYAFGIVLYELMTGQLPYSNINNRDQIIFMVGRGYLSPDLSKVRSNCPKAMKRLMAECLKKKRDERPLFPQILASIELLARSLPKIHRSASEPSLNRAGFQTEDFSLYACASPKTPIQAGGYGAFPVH
Procedure: (§1) Kinase Assay: The Kinase profiling assay was performed by ProQinase as previously described (Cheng et al.201 0).
(§2) Because E738 initially was designed as a protein kinase inhibitor, we asked if E738 induced dephoshorylation and degradation are caused by certain protein kinases. Thus we exploited protein kinase profiling containing several Smad-relative protein kinases like CDKs and GSK3ß to overview the inhibitory effect of E738 in vitro. The residual activities of kinases were measured by using recombinant protein kinases and proper substrates after treatment with 1µM E738 in the presence of 1µM ATP as our previously described. […] However the mechanism was still remained to elucidate. Recently, researchers argued that Raf kinase inhibitor may induce the activation of MAPKs in vitro and in vivo leading to the failure of cancer therapy (Hatzivassiliou nature 2010 464 431-436, Heidol cell 2010 140 209-221, Murphy PNAS 2010 107 9 4299-4304). We assumed that the indirubin activated MAPKs might be due to its inhibition against Raf kinase. Furthermore, the Lin et. al. described Stat3 inhibitor could disrupt TGFß signaling (Lin oncogene 200928 961-972). Therefore we included Raf and Stat3-relative protein kinases, like Jak, Kit and Src, in this small screening.

[3] = biological target: T2, Src (Homo sapiens, UniProt P12931); assay: Kinase profiling assay (ProQinase); type: biochemical; conditions: 1µM E738, 1µM ATP, recombinant protein kinase
T2 construct: purchased ProQinase
T2 sequence (P12931 whole entry): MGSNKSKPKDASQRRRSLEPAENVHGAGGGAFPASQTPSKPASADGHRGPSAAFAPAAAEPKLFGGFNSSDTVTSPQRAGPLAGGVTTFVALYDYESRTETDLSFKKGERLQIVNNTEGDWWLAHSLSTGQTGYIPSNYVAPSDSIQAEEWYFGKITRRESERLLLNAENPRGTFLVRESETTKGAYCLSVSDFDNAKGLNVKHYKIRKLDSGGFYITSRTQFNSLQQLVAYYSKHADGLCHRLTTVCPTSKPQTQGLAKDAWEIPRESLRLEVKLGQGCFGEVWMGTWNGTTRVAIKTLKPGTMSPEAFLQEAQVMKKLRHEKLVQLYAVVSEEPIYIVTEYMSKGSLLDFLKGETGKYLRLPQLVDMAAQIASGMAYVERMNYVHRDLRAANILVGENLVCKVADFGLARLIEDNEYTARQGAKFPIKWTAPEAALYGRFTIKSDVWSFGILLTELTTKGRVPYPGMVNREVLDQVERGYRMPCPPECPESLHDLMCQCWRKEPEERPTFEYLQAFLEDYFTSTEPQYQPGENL
Procedure: as §1, §2

[4] = biological target: T3, KIT (Homo sapiens, UniProt P10721); assay: Kinase profiling assay (ProQinase); type: biochemical; conditions: 1µM E738, 1µM ATP, recombinant protein kinase
T3 construct: purchased ProQinase
T3 sequence (P10721 26-976): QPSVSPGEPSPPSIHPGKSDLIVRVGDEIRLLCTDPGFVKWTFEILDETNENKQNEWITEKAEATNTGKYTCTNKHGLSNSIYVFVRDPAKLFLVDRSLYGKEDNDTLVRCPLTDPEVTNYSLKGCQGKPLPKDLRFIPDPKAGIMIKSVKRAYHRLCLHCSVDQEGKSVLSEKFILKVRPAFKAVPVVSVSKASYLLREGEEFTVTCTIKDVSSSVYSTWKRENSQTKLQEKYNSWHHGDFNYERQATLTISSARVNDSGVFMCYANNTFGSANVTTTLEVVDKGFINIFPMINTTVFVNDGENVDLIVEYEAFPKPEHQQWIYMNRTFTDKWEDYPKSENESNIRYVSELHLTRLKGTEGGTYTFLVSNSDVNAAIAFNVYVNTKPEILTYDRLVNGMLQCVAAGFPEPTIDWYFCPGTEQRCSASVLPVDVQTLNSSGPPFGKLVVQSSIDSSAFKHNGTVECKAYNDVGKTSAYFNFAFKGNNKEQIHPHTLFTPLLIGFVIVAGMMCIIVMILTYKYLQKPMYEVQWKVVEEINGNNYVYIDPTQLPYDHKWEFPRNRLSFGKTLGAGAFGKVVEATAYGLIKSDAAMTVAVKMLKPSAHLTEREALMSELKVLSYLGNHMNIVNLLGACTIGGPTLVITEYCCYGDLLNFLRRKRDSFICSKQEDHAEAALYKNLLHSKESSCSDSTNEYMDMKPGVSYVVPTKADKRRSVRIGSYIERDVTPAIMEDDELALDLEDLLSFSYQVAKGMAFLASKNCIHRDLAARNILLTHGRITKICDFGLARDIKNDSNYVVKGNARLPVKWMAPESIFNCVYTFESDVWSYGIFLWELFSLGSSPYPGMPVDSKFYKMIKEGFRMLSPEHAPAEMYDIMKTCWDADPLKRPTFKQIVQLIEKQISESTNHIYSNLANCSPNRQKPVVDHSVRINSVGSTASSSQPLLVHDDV
Procedure: as §1, §2

[5] = biological target: T4, JAK2 (Homo sapiens, UniProt O60674); assay: Kinase profiling assay (ProQinase); type: biochemical; conditions: 1µM E738, 1µM ATP, recombinant protein kinase
T4 construct: purchased ProQinase
T4 sequence (O60674 whole entry): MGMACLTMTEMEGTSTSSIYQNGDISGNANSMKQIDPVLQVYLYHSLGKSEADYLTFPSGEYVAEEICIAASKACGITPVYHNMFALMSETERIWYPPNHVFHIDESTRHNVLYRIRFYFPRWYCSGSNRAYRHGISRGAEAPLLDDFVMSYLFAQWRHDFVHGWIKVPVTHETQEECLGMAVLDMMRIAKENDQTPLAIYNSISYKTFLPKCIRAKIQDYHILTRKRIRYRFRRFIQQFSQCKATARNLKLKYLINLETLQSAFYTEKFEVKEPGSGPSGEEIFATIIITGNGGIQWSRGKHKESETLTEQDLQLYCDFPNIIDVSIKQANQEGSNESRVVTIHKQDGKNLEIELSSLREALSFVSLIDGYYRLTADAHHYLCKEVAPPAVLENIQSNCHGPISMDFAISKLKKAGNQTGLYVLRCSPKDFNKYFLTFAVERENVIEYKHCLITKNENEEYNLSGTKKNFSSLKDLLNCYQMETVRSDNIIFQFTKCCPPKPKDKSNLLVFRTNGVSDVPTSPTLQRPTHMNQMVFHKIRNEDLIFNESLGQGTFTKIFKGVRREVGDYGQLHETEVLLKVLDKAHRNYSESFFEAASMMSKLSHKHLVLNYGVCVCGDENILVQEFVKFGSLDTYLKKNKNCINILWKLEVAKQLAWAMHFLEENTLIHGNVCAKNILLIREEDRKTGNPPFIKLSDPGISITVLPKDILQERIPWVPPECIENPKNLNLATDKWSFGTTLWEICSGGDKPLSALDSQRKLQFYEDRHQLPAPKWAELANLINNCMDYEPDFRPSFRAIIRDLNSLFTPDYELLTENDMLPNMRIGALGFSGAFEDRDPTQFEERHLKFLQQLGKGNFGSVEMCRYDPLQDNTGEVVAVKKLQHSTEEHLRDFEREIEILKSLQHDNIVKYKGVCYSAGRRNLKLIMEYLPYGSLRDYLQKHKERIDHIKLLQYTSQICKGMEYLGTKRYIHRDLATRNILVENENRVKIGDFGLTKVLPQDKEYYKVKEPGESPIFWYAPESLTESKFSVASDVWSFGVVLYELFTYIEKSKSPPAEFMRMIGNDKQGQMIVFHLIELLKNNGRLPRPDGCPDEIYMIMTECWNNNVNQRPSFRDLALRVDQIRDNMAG
Procedure: as §1, §2

[6] = test system: healthy cell lines; assay: MTT assay, healthy cell lines; type: cell-based; conditions: non-cancer cell lines

`COc1ccc2c(c1)C(=C1Nc3ccccc3C1=NOCC(O)CO)C(=O)N2` (stereo not drawn) [E738] was tested. Which “mono-, di- and poly-ubiquitins” value [1] did it give?
Its value is “more mono-ubiquitin, but less di- and poly-ubiquitins”.

And the “blocked activity of b-Raf” value [2]?
Its value is 57%.

And the “inhibition of Src” value [3]?
Its value is “generally inhibited”.

And the “inhibition of KIT” value [4]?
Its value is “generally inhibited”.

What about the “inhibition of JAK2” value [5] of the same molecule?
The value was “generally inhibited”.

What about the “toxicities towards healthy cell lines, lower than towards tumor cells” value [6] of the same molecule?
The value was 20 fold.
